# According to publication PMC12084609, “Structural insights into small-molecule agonist recognition and activation of complement receptor C3aR” (The EMBO Journal, 2025):
# Where a chain is given by its changes, count along the chain named. Several values for one entry are separate records, joined by “and”; a condition that tells them apart may be missing. Equal values may be shown once.
# Key:
# C3aR [1] = biological target: T1, C3aR (Homo sapiens, UniProt Q16581); design: method as in Luo et al, 2025; settings: human monocyte THP-1 cells, naturally express C3aR; ref Luo et al, 2025; cited from earlier work
# T1 sequence (Q16581 whole entry): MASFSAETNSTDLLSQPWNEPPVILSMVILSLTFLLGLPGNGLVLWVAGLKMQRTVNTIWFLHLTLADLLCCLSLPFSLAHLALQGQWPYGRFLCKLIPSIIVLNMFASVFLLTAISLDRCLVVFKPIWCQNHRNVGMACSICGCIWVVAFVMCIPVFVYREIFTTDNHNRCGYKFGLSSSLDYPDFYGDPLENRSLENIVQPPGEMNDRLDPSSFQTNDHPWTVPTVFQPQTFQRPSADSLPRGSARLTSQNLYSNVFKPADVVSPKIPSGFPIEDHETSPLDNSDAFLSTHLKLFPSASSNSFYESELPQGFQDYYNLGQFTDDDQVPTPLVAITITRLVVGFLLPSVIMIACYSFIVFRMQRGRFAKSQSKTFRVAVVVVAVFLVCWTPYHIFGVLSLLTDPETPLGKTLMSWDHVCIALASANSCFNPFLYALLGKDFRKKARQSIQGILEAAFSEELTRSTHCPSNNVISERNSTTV
# T1 sequence (P63096 2-354 partner limits assumed): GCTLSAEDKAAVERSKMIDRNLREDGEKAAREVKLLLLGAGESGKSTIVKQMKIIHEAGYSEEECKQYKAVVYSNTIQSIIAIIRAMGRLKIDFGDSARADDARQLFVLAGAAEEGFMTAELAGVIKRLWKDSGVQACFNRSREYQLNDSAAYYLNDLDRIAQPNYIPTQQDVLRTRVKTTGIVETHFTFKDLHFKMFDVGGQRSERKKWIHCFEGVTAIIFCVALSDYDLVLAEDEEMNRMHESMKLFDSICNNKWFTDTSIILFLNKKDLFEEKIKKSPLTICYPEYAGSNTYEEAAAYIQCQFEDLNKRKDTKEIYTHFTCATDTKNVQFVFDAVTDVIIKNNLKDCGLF
# T1 sequence (P62873 2-340 partner limits assumed): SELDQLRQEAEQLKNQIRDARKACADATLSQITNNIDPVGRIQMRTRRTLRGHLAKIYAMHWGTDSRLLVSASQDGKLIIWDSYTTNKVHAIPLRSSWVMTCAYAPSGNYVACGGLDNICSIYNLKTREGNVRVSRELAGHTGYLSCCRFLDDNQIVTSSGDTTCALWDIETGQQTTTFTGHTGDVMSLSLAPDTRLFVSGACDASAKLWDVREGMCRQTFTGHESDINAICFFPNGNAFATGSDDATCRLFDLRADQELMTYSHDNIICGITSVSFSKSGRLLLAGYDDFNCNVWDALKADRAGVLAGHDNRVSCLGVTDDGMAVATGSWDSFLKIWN
# T1 sequence (P59768 2-68 partner limits assumed): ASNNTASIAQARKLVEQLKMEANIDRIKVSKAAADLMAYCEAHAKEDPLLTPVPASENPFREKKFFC
# C3aR S26^1.35A = biological target: T2, C3aR S26^1.35A (Homo sapiens, UniProt Q16581, S26A); assay: GloSensor-based cAMP assay, C3aR mutant S26A; format: cell-based
# T2 construct: expressed in transfected cells; host or cells: HEK293T
# T2 sequence (Q16581 1-482 S26A): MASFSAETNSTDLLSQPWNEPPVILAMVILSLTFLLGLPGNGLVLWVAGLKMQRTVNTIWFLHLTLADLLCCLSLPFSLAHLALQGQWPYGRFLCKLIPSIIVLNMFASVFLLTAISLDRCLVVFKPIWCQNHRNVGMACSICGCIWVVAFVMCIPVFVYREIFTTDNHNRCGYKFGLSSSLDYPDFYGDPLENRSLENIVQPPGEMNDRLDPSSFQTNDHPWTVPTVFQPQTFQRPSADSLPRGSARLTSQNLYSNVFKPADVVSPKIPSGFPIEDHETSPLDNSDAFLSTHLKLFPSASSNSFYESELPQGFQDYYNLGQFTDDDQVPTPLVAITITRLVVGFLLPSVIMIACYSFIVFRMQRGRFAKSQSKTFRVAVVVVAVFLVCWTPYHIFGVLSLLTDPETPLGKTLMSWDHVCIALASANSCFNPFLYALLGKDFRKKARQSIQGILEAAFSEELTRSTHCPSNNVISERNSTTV
# Procedure: (§1) HEK293T cells were seeded on 6-well plates (NEST) and transfected with pGlosensor™-22F plasmids (Promega) and pcDNA3.1 plasmids encoding C3aR or its mutants an with N-terminal FLAG tag. After 48 h, cells were detached with Accutase solution (Sigma-Aldrich) and washed with PBS, and resuspended in assay buffer (CO2-independent medium with 0.5 mg mL^−1D-luciferin). 100,000–200,000 cells were seeded on 96-well white bottom plates (SPL) and incubated at 37 °C for 45 min followed by 45 min incubation at room temperature. After 90 min of incubation, basal luminescence signals were recorded. In total, 25 μl of test ligand with various concentrations and 1 μM Forskolin (Sigma-Aldrich) were treated to the cells and luminescence signals were measured by Tristar 2 LB 942 multimode reader (Berthold). […] Relative luminescence unit (%) was calculated with the signal of wells treated with vehicle as 0% and the signal of wells treated with 1 μM Forskolin as 100% (DiRaddo et al, [2014]). Nonlinear regression was performed using a three-parameter logistic equation.
# C3aR L82^2.64A = biological target: T3, C3aR L82^2.64A (Homo sapiens, UniProt Q16581, L82A); assay: GloSensor-based cAMP assay, C3aR mutant L82A; format: cell-based
# T3 construct: expressed in transfected cells; host or cells: HEK293T
# T3 sequence (Q16581 1-482 L82A): T2 sequence (Q16581 1-482 S26A) with A26S, L82A
# Procedure: as §1
# C3aR [2] = test system: C3aR; design: method as in Luo et al, 2025; settings: HEK293 cells; ref Luo et al, 2025; cited from earlier work
# C3aR [3] = test system: C3aR; design: method as in Mathieu et al, 2005; Rodriguez et al, 2024; settings: blockade of calcium influx attributed to β-arrestin mediated internalization; ref Mathieu et al, 2005; Rodriguez et al, 2024; cited from earlier work
# C3aR [4] = biological target: T1, C3aR; design: method as in Rowley et al, 2020; settings: inhibition of C3a-induced calcium release and mast cell degranulation; ref Rowley et al, 2020; cited from earlier work
# C3aR Y174^ECL2A = biological target: T4, C3aR Y174^ECL2A (Homo sapiens, UniProt Q16581, Y174A); assay: GloSensor-based cAMP assay, C3aR mutant Y174A; format: cell-based
# T4 construct: expressed in transfected cells; host or cells: HEK293T
# T4 sequence (Q16581 1-482 Y174A): T2 sequence (Q16581 1-482 S26A) with A26S, Y174A
# Procedure: as §1
# [5] = Dunnett's multiple comparisons test, WT minus mutant
structure (smiles),measurement,setting,value
"Cc1cc(C(c2ccc(Cl)cc2)c2ccc(Cl)cc2)sc1C(=O)N[C@@H](CCCNC(=N)N)C(=O)O [JR14a, reference compound]",forskolin-induced cAMP production,C3aR [1],inhibited forskolin-induced cAMP production in a dose-dependent manner
same,"Mean Diff. of pIC50, WT vs. S26A",C3aR S26^1.35A; [5],-0.137
same,IC50,"C3aR S26^1.35A; IC50, S26^1.35A, dose-response plot",5.58 nM
same,remaining activity at 1 µM,"C3aR S26^1.35A; S26A, Log[JR14a (M)] -6, single replicates, read-out: cAMP response (% Forskolin)",7.75%
same,remaining activity at 0.1 µM,"C3aR S26^1.35A; S26A, Log[JR14a (M)] -7, single replicates, read-out: cAMP response (% Forskolin)",8.58%
same,remaining activity at 0.0001 µM,"C3aR S26^1.35A; S26A, Log[JR14a (M)] -10, single replicates, read-out: cAMP response (% Forskolin)",91.9%
same,remaining activity at 10 pM,"C3aR S26^1.35A; S26A, Log[JR14a (M)] -11, single replicates, read-out: cAMP response (% Forskolin)",96.7%
same,ΔpIC50 ± SE of Diff.,C3aR S26^1.35A; S26^1.35A relative to WT C3aR,0.14 ± 0.07
same,IC50,"C3aR S26^1.35A; pIC50 (Replicate), S26^1.35A, individual replicates",1.62 nM and 4.57 nM and 7.41 nM
same,IC50,"C3aR S26^1.35A; pIC50 ± SEM (Mean), S26^1.35A, mean of independent experiments",3.8 nM
same,"Mean Diff. of pIC50, WT vs. L82A",C3aR L82^2.64A; [5],-0.402
same,IC50,"C3aR L82^2.64A; IC50, L82^2.64A, dose-response plot",2.07 nM
same,remaining activity at 1 µM,"C3aR L82^2.64A; L82A, Log[JR14a (M)] -6, single replicates, read-out: cAMP response (% Forskolin)",9.36%
same,remaining activity at 0.1 µM,"C3aR L82^2.64A; L82A, Log[JR14a (M)] -7, single replicates, read-out: cAMP response (% Forskolin)",8.92%
same,remaining activity at 0.01 µM,"C3aR L82^2.64A; L82A, Log[JR14a (M)] -8, single replicates, read-out: cAMP response (% Forskolin)",34.1%
same,remaining activity at 0.001 µM,"C3aR L82^2.64A; L82A, Log[JR14a (M)] -9, single replicates, read-out: cAMP response (% Forskolin)",62.6%
same,remaining activity at 0.0001 µM,"C3aR L82^2.64A; L82A, Log[JR14a (M)] -10, single replicates, read-out: cAMP response (% Forskolin)",93.2%
same,remaining activity at 10 pM,"C3aR L82^2.64A; L82A, Log[JR14a (M)] -11, single replicates, read-out: cAMP response (% Forskolin)",106%
same,ΔpIC50 ± SE of Diff.,C3aR L82^2.64A; L82^2.64A relative to WT C3aR,0.40 ± 0.14
same,IC50,"C3aR L82^2.64A; pIC50 (Replicate), L82^2.64A, individual replicates",1.55 nM and 3.39 nM and 1.66 nM
same,IC50,"C3aR L82^2.64A; pIC50 ± SEM (Mean), L82^2.64A, mean of independent experiments",2.04 nM
same,forskolin-induced cAMP production,C3aR [2],inhibited forskolin-induced cAMP production in a dose-dependent manner
same,activity at C3aR,C3aR [3],potent agonist
same,IC50 values,C3aR [4],nanomolar range
same,"Mean Diff. of pIC50, WT vs. Y174A",C3aR Y174^ECL2A; [5],-0.215
same,IC50,"C3aR Y174^ECL2A; IC50, Y174^ECL2A, dose-response plot",1.61 nM
same,remaining activity at 1 µM,"C3aR Y174^ECL2A; Y174A, Log[JR14a (M)] -6, single replicates, read-out: cAMP response (% Forskolin)",10.9%
same,remaining activity at 0.1 µM,"C3aR Y174^ECL2A; Y174A, Log[JR14a (M)] -7, single replicates, read-out: cAMP response (% Forskolin)",11.8%
same,remaining activity at 0.01 µM,"C3aR Y174^ECL2A; Y174A, Log[JR14a (M)] -8, single replicates, read-out: cAMP response (% Forskolin)",40.7%
same,remaining activity at 0.0001 µM,"C3aR Y174^ECL2A; Y174A, Log[JR14a (M)] -10, single replicates, read-out: cAMP response (% Forskolin)",95.8%
same,remaining activity at 10 pM,"C3aR Y174^ECL2A; Y174A, Log[JR14a (M)] -11, single replicates, read-out: cAMP response (% Forskolin)",106%
same,ΔpIC50 ± SE of Diff.,C3aR Y174^ECL2A; Y174^ECL2A relative to WT C3aR,0.22 ± 0.09
same,decrease in IC50 values vs WT,"C3aR Y174^ECL2A; Y174^ECL2 to Ala, relatively mild effect on downstream signaling",< 10 fold
same,IC50,"C3aR Y174^ECL2A; pIC50 (Replicate), Y174^ECL2A, individual replicates",3.63 nM and 1.55 nM and 0.871 nM
same,IC50,"C3aR Y174^ECL2A; pIC50 ± SEM (Mean), Y174^ECL2A, mean of independent experiments",1.7 nM
